# Results published in US12606552B2, “Bifunctional compound, preparation method therefor, and use thereof” (SUZHOU KINTOR PHARMACEUTICALS, INC., priority 2020, dated 2026).
# Biological target: T1, AR (Homo sapiens, UniProt P10275, T878A)
# T1 sequence (P10275 1-920 T878A): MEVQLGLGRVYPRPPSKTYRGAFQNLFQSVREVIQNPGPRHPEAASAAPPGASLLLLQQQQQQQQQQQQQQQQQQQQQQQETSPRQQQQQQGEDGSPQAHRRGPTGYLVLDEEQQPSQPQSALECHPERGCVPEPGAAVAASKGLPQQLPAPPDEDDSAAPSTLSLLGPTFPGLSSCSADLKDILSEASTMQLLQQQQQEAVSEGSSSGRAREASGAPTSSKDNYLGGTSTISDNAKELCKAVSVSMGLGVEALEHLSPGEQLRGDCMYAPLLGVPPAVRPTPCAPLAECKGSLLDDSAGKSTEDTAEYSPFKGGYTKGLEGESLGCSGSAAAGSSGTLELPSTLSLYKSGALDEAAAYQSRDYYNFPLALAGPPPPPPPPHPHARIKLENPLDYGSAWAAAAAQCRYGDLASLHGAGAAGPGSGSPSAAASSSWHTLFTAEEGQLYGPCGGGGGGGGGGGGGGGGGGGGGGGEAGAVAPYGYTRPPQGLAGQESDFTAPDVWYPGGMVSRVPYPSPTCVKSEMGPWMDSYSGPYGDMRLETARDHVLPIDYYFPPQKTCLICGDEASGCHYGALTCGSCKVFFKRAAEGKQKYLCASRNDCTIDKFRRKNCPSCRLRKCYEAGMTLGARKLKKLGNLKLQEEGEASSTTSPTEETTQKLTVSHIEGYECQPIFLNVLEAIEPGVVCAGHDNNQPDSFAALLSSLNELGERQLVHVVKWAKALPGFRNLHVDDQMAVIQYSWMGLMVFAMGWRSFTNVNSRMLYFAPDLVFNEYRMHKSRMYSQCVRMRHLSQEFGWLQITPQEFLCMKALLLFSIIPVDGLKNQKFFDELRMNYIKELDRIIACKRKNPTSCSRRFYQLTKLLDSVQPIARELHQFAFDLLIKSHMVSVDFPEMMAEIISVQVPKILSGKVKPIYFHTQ
# Assay: Degradation effect on AR protein activity in prostate cancer cell line Lncap by ELISA method
# Type: cell-based
# Design: Degradation Effect of Compounds on AR Protein Activity in Prostate Cancer Cell Line Lncap by ELISA Method; endogenous in cells; host or cells: LNCaP
# Conditions: 24 hours, Total Androgen Receptor Sandwich ELISA, read-out: IC50 (the drug concentration at 50% inhibition) of AR protein
# Description: Activity Assay Example 6: Determination of the Degradation Effect of Compounds on AR Protein Activity in Prostate Cancer Cell Line Lncap by ELISA Method
# • LNCaP: 1.5*10^LNCaP (human prostate cancer) was purchased from the Chinese Academy of Sciences Cell Bank and cultured in RPMI-1640 medium containing 10% fetal bovine serum. Lncap cells were cultured at 37° C. and 5% CO2 in a humidified incubator. When the coverage reached about 80%, the cells were passaged at a ratio of 1:3. • ELISA kit: Total Androgen Receptor Sandwich ELISA Kit (Brand CST, Cat #12850). 2. Test Method 2.1 Cell Plating
# After the cells were centrifuged, they were diluted to 1.5×10^4 cells/100 ul with fresh medium and plated into a 96-well plate with 100 ul per well.
# Test compound preparation: The compounds were weighed and diluted with DMSO to stock solution with a concentration of 10 mM for later use. According to the experimental requirements, the drug was diluted from 2 uM, 3 fold dilution for 10 point series, and finally 2 μl of the drug was added to each well, and 2 μl of DMSO was added to the control group.
# 2.3 After 24 hours, the medium was removed, and the cells were washed once with ice-cold 1×PBS. Then the PBS was removed, and 0.5 ml ice-cold 1× Cell Lysis Buffer containing 1 mM PMSF was added to each well plate and incubated on ice for 20 minutes. […]
smiles,measurement,value
Cc1ncsc1-c1ccc(CNC(=O)[C@@H]2C[C@@H](O)CN2C(=O)[C@@H](NC(=O)COCCCCOc2ccc(-c3ccc(N4C(=S)N(c5ccc(C#N)c(C(F)(F)F)c5F)C(=O)C4(C)C)cn3)cc2)C(C)(C)C)cc1 [Compound A46],DC50,0.049 µM
